# Reference: patent US12528818B2, “Compositions and methods for inhibition of RAS” (Leidos Biomedical Research, Inc., priority 2021, dated 2026)
# Test system: pERK in NCI-H358 cells
# Test: Cell-based pERK HTRF assay (pERK inhibition in H358 cells)
# Details: Homo sapiens, NCI-H358, 0.5 h, pERK inhibition IC50, NCI-H358 cells, 30 min incubation; read-out: PERK in H358 cell
row,SMILES,IC50
1,"C=CC(=O)N1CC[C@@H](N(C)c2nc(OC[C@@]34CCCN3C[C@H](F)C4)nc3c(F)c(-c4ccc(F)c5sc(N)nc45)c(Cl)cc23)C1 [Compound 195, 1-((3R)-3-((7-(2-amino-7-fluorobenzo[d]thiazol-4-yl)-6-chloro-8-fluoro-2-(((2R,7aS)-2-fluorotetrahydro-1H-pyrrolizin-7a(5H)-yl)methoxy)quinazolin-4-yl)(methyl)amino)pyrrolidin-1-yl)prop-2-en-1-one]",< 100 nM
2,C=CC(=O)N1CC(N(c2nc(OCC34CCCN3CCC4)nc3c(F)c(-c4ccc(F)c5sc(N)nc45)c(Cl)cc23)C2CC2)C1 [Compound 151],> 1000 nM
3,C=C(F)C(=O)N1C[C@H](C)N(c2nc(OC[C@@]34CCCN3C[C@H](F)C4)nc3c(F)c(-c4ccc(F)c5sc(N)nc45)c(C(F)(F)F)cc23)C[C@H]1C [Compound 203],100 to 1000 nM
4,C=CC(=O)N1C[C@H](C)N(c2nc(OC[C@@]34CCCN3C[C@H](F)C4)nc3c(F)c(-c4ccc(F)c5sc(N)nc45)c(OC(F)F)cc23)C[C@H]1C [Compound 280],< 100 nM
5,"C=CC(=O)N1CCN(c2nc(OCC34CCCN3CC(C)(C)C4)nc3c(F)c(-c4ccc(F)c5sc(N)nc45)c(C(F)(F)F)cc23)CC1 (centres unmarked) [Compound 171, 1-(4-(7-(2-amino-7-fluorobenzo[d]thiazol-4-yl)-2-((2,2-dimethyltetrahydro-1H-pyrrolizin-7a(5H)-yl)methoxy)-8-fluoro-6-(trifluoromethyl)quinazolin-4-yl)piperazin-1-yl)prop-2-en-1-one]",< 100 nM
6,C=CC(=O)N1CC(N(CC)c2nc(OC[C@]34CCCN3C[C@H](F)C4)nc3c(F)c(-c4ccc(F)c5sc(N)nc45)c(C(F)(F)F)cc23)C1 [Compound 206],100 to 1000 nM
7,C=CC(=O)N1CC[C@@H](N(C)c2ncnc3c(F)c(-c4ccc(F)c5sc(N)nc45)c(C(F)(F)F)cc23)C1 [Compound 225],100 to 1000 nM
8,C=CC(=O)N1CC[C@@H](N(C)c2nc(OCC34CCCN3CCC4)nc3c(F)c(-c4c(O)cccc4F)c(C(F)(F)F)cc23)C1 [Compound 227],> 1000 nM
9,C=CC(=O)N1CC(Nc2nc(OC[C@@]34CCCN3C[C@H](F)C4)nc3c(F)c(-c4ccc(F)c5sc(N)nc45)c(C(F)(F)F)cc23)C1 [Compound 270],< 100 nM
10,C=CC(=O)N1CCN(c2nc(OC[C@@]34CCCN3C[C@@H](F)C4)nc3c(F)c(-c4ccc(F)c5sc(N)nc45)c(C(F)(F)F)cc23)[C@H](C)C1 [Compound 217],100 to 1000 nM
11,C=CC(=O)N1CCN(c2nc(OCC34CCCN3CCC4)nc3c(F)c(-c4ccc(F)c5sc(N)nc45)c(-c4ccoc4)cc23)CC1 [Compound 119],> 1000 nM
12,C=CC(=O)N1CC[C@@H](N(CC)c2nc(OC[C@@]34CCCN3C[C@H](F)C4)nc3c(F)c(-c4ccc(F)c5sc(N)nc45)c(C(F)(F)F)cc23)C1 [Compound 257],< 100 nM
13,C=CC(=O)N1CC[C@@H](N(C)c2nc(OCC34CCCN3CCC4)nc3c(F)c(-c4cc(O)cc5ccccc45)c(C(F)(F)F)cc23)C1 [Compound 226],100 to 1000 nM
14,C=CC(=O)N1CCN(c2c(C#N)c(OC[C@@]34CCCN3C[C@H](F)C4)nc3c(F)c(-c4ccc(F)c5sc(N)nc45)c(Cl)cc23)CC1 [Compound 200],< 100 nM
15,CC#CC(=O)N1CC(N(C)c2nc(OC[C@@H]3CCCN3C)nc3c(F)c(-c4ccc(F)c5sc(N)nc45)c(C(F)(F)F)cc23)C1 [Compound 129],100 to 1000 nM
16,C=CC(=O)N1CC(N(C)c2nc(OC[C@@]34CCCN3C[C@H](F)C4)nc3c(F)c(-c4ccc(F)c5sc(N)nc45)c(C(F)(F)F)cc23)C1 [Compound 223],< 100 nM
17,C=CC(=O)N1CC(Nc2nc(OCC34CCCN3CCC4)nc3c(F)c(-c4ccc(F)c5sc(N)nc45)c(C(F)(F)F)cc23)C1 [Compound 79],> 1000 nM
18,C=CC(=O)N1CCN(c2nc(OC[C@]34CCCN3C[C@H](F)C4)nc3c(F)c(-c4ccc(F)c5sc(N)nc45)c(C(F)(F)F)cc23)C[C@@H]1C [Compound 165],< 100 nM
19,C=CC(=O)N1CCN(c2nc(OC[C@]34CCCN3C[C@H](F)C4)nc3c(F)c(-c4ccc(F)c5sc(N)nc45)c(C(F)(F)F)cc23)[C@@H](C)C1 [Compound 177],< 100 nM
20,"C=CC(=O)N1CCN(c2nc(OCC34CCCN3CCC4)nc3c(F)c(-c4ccc(F)c5oc(N)nc45)c(C(F)(F)F)cc23)CC1 [Compound 162, 1-(4-(7-(2-amino-7-fluorobenzo[d]oxazol-4-yl)-8-fluoro-2-((tetrahydro-1H-pyrrolizin-7a(5H)-yl)methoxy)-6-(trifluoromethyl)quinazolin-4-yl)piperazin-1-yl)prop-2-en-1-one]",100 to 1000 nM
21,C=CC(=O)N1CC[C@@H]2[C@H]1CN2c1nc(OC[C@@H]2C[C@@H](F)CN2C)nc2c(F)c(-c3ccc(F)c4sc(N)nc34)c(Cl)cc12 [Compound 89],< 100 nM
22,C=CC(=O)N1CC(N(C)c2nc(OC[C@@H]3CC(F)(F)CN3C)nc3c(F)c(-c4ccc(F)c5sc(N)nc45)c(C(F)(F)F)cc23)C1 [Compound 181],> 1000 nM

# Now from value to compound:
row,IC50,SMILES
1,< 100 nM,C=CC(=O)N1C[C@H](C)N(c2nc(OC[C@@H]3C[C@@H](F)CN3C)nc3c(F)c(-c4ccc(F)c5sc(N)c(C#N)c45)c(C(F)(F)F)cc23)C[C@H]1C [Compound 406]
2,< 100 nM,C=CC(=O)N1C[C@H](C)N(c2nc(N3CC(N4CC(O)C4)C3)nc3c(F)c(-c4ccc(F)c5sc(N)c(C#N)c45)c(C(F)(F)F)cc23)C[C@H]1C [Compound 328]
3,< 100 nM,C=CC(=O)N1CC[C@@H](N(CC)c2nc(OC[C@@]34CCCN3C[C@H](F)C4)nc3cc(-c4ccc(F)c5sc(N)c(C#N)c45)c(F)cc23)[C@H]1C [Compound 414]
4,< 100 nM,C=CC(=O)N1C[C@H](F)[C@@H](N(C)c2nc(OC[C@@]34CCCN3C[C@H](F)C4)nc3cc(-c4ccc(F)c5sc(N)nc45)c(C(F)(F)F)cc23)C1 [Compound 335]
5,100 to 1000 nM,C=CC(=O)N1CCC(N(C)c2nc(OC[C@@H]3CCCN3C)nc3cc(-c4ccc(F)c5sc(N)c(C#N)c45)c(F)cc23)[C@H]1COC (some centres unmarked) [Compound 441]
6,< 100 nM,C=CC(=O)N1C[C@@H](F)[C@@H](N(C)c2nc(OC[C@@H]3CC4(CC4)CN3C)nc3cc(-c4ccc(F)c5sc(N)nc45)c(C(F)(F)F)cc23)C1 [Compound 351]
7,< 100 nM,C=CC(=O)N1C[C@H](C)N(c2nc(OC[C@@]34CCCN3C[C@H](F)C4)nc3c(F)c(-c4ccc(F)c5sc(N)c(C#N)c45)c(F)cc23)C[C@H]1C [Compound 333]
8,< 100 nM,"C=CC(=O)N1C[C@H](C)N(c2nc(N3CC(N4CC5(CC5)C4)C3)nc3c(F)c(-c4ccc(F)c5sc(N)c(C#N)c45)c(C(F)(F)F)cc23)C[C@H]1C [Compound 338, 4-(2-(3-(5-azaspiro[2.3]hexan-5-yl)azetidin-1-yl)-4-((2S,5R)-4-acryloyl-2,5-dimethylpiperazin-1-yl)-8-fluoro-6-(trifluoromethyl)quinazolin-7-yl)-2-amino-7-fluorobenzo[b]thiophene-3-carbonitrile]"
9,100 to 1000 nM,C=CC(=O)N1[C@H](C)CN(c2nc(OC[C@@]34CCCN3C[C@H](F)C4)nc3c(F)c(-c4ccc(F)c5sc(N)c(C#N)c45)c(C(F)(F)F)cc23)C[C@H]1C [Compound 330]
10,< 100 nM,C=CC(=O)N1C[C@@H](F)[C@@H](N(CC)c2nc(OC[C@@]34CCCN3C[C@H](F)C4)nc3c(C#N)c(-c4ccc(F)c5sc(N)c(C#N)c45)c(Cl)cc23)C1 [Compound 380]
11,< 100 nM,C=CC(=O)N1C[C@H](C)N(c2nc(OC[C@@]34CCCN3C[C@H](F)C4)nc3cc(-c4ccc(F)c5sc(N)c(C#N)c45)c(C(F)(F)F)cc23)C[C@H]1C [Compound 304]
12,< 100 nM,C=CC(=O)N1CCC(N(C)c2nc(OC[C@@H]3C[C@@H](OC)CN3C)nc3c(F)c(-c4ccc(F)c5sc(N)c(C#N)c45)ccc23)[C@H]1C (some centres unmarked) [Compound 430]
13,< 100 nM,C=CC(=O)N1CC[C@@H](N(C)c2nc(OC[C@@]34CCCN3C[C@H](F)C4)nc3cc(-c4ccc(F)c5sc(N)c(C#N)c45)c(C#N)cc23)[C@H]1COC [Compound 393]
14,< 100 nM,C=CC(=O)N1C[C@@H](F)[C@@H](N(CC)c2nc(OC[C@@]34CCCN3C[C@H](F)C4)nc3c(F)c(-c4ccc(F)c5sc(N)c(C#N)c45)c(Cl)cc23)C1 [Compound 368]
15,< 100 nM,C=CC(=O)N1CC[C@@H](N(C)c2nc(OC[C@@]34CCCN3C[C@H](F)C4)nc3c(F)c(-c4ccc(F)c5sc(N)c(C#N)c45)c(C#N)cc23)C1 [Compound 325]
16,< 100 nM,C=CC(=O)N1CCC(N(C)c2nc(OC[C@@H]3C[C@@H](F)CN3C)nc3c(F)c(-c4ccc(F)c5sc(N)c(C#N)c45)ccc23)[C@H]1COC (some centres unmarked) [Compound 423]

# Same assay, conditions: Homo sapiens, NCI-H358, 0.5 h, read-out: PERK in H358 cell
row,SMILES,IC50
1,"CN1CCC[C@H]1COc1nc(NC2CN(C#N)C2)c2cc(Cl)c(-c3ccc(F)c4sc(N)nc34)c(F)c2n1 [Compound 40, 3-((7-(2-amino-7-fluorobenzo[d]thiazol-4-yl)-6-chloro-8-fluoro-2-(((S)-1-methylpyrrolidin-2-yl)methoxy)quinazolin-4-yl)amino)azetidine-1-carbonitrile]",100 to 1000 nM

# Same assay, conditions: pERK inhibition IC50, NCI-H358 cells, 30 min incubation; read-out: PERK in H358 cell
row,IC50,SMILES
1,< 100 nM,C=CC(=O)N1C[C@H](C)N(c2nc(OC[C@@]34CCCN3C[C@H](OC)C4)nc3c(F)c(-c4ccc(F)c5sc(N)nc45)c(C(F)(F)F)cc23)C[C@H]1C [Compound 297]
2,< 100 nM,"C=CC(=O)N1CC[C@@H](N(C)c2nc(OC[C@@H]3CC4(CC4)CN3C)nc3c(F)c(-c4ccc(F)c5sc(N)nc45)c(C(F)(F)F)cc23)C1 (atropisomer, axis not shown) [Compound 256]"
3,> 1000 nM,C=CC(=O)N1CCC[C@@H](N(C)c2nc(OC[C@@]34CCCN3C[C@H](F)C4)nc3c(F)c(-c4ccc(F)c5sc(N)nc45)c(C(F)(F)F)cc23)C1 [Compound 245]
4,< 100 nM,"C=CC(=O)N1CC[C@@H](Nc2nc(OC[C@@]34CCCN3C[C@H](F)C4)nc3c(F)c(-c4ccc(F)c5sc(N)nc45)c(C(F)(F)F)cc23)C1 (single isomer, unassigned) [Compound 271]"
5,100 to 1000 nM,"C=CC(=O)N1C[C@H](N(C)c2ncnc3c(F)c(-c4ccc(F)c5sc(N)nc45)c(C(F)(F)F)cc23)C[C@H]1C (atropisomer, axis not shown) [Compound 250]"
